Legend:
[1] = pH buffer effect (pH change on addition of HCl or NaOH); format: physicochemical
Procedure: Using the purified product of 4-trehalosamine obtained in the <Purification process> of production example 10, the functionality of 4-trehalosamine as buffer reagent was determined in the following manner.
A change in pH while 50 μL to 100 μL of 1 M hydrochloric acid (HCl) or 1 M sodium hydroxide (NaOH) was added to 50 mL of aqueous solution of 10 mM 4-trehalosamine (production example 10), 50 mL of aqueous solution of 10 mM trehalose, 50 mL of 10 mM tris, 50 mL of aqueous solution of 10 mM MES (2-(N-morpholino) ethanesulfonic acid), or 50 mL of aqueous solution of 10 mM HEPES (4-(2-hydroxyethyl)-1-piperazinylethane sulfonic acid) was measured with a pH meter (LAQUA F-51, manufactured by HORIBA, Ltd.).

[2] = Starch aging inhibiting effect, enzyme assay 3 (potato starch gel); details: final concentration 10% or 15% (w/w), 48 and 96 hours
Procedure: Starch aging inhibiting effect was determined in a similar manner to the <Enzyme assay 1> except that the “—Preparation of measurement samples—” and “—Determination of starch aging inhibiting effect—” in the <Enzyme assay 1> were changed to the methods below.
The 4-trehalosamine (4TA) obtained in production example 10, and trehalose (TRH), sucrose (SCR), and glycerol (GOL) were each dissolved in water to a final concentration of 10% (w/w) or 15% (w/w), thus preparing aqueous solutions. Into each of the aqueous solutions containing the different sugars or water as control, potato starch (manufactured by Yoshida Pharmaceutical Company Limited) was mixed to a final concentration of 15% (w/w) and suspended uniformly, and the suspension was aliquoted in 33.3 μL volumes to three tubes. […]
Starch aging inhibiting effect was determined in a similar manner to the “—Determination of starch aging inhibiting effect—” of the <Enzyme assay 1> except that measurement of absorbance at 660 nm was changed to measurement of absorbance at 620 nm in the “—Determination of starch aging inhibiting effect—” of the <Enzyme assay 1>, and that quantification (absorbance measurement) of enzyme reaction and sugar was performed for the 0-hour, 48-hour, and 96-hour samples in the quantification (absorbance measurement) of enzyme reaction and sugar. […]

[3] = Starch aging inhibiting effect, enzyme assay 1 and 2 (β-amylase degradation of corn starch gel)
Procedure: After the individual test samples were mixed into corn starch gel and left to stand at low temperature for 96 hours, the aging level was evaluated via a degradation experiment using β-amylase. The method described below is an evaluation scheme that is an improvement over the BAP method (K. Kainuma, et al, Journal of the Japanese Society of Starch Science 1981, 28, 235.) and only uses β-amylase.
The 4-trehalosamine (4TA) obtained in production example 10, and trehalose (TRH), sucrose (SCR), and glycerol (hereinafter, sometimes referred to as “GOL”) were each dissolved in water to a final concentration of 10% (w/w), thus preparing aqueous solutions. […]
Quantification (absorbance measurement) of enzyme reaction and sugar were performed for the 24-hour, the 48-hour, or the 96-hour sample in a similar manner to the quantification (absorbance measurement) of enzyme reaction and sugar for the 0-hour sample except that the measurement sample was changed to the 24-hour sample, the 48-hour sample, or the 96-hour sample in the quantification (absorbance measurement) of enzyme reaction and sugar for the 0-hour sample. […]

[4] = Starch aging inhibiting effect, enzyme assay 5 (wheat flour gel); details: final concentration 10% or 15% (w/w), 48 and 96 hours
Procedure: Starch aging inhibiting effect was determined in a similar manner to the <Enzyme assay 3> except that potato starch was changed to wheat flour (organic wheat flour, from Kanazawa Daichi) in the “—Preparation of measurement samples—” of the <Enzyme assay 3>. The results for the 10% (w/w) final concentration of the different sugars are shown in FIG. 15I, and the results for the 15% (w/w) final concentration of the different sugars are shown in FIG. 15J.

In the case of `N[C@H]1[C@H](O)[C@@H](O)[C@@H](O[C@H]2O[C@H](CO)[C@@H](O)[C@H](O)[C@H]2O)O[C@@H]1CO` [4-trehalosamine], the pH buffer effect ([1]; 10 mM aqueous solution, 1 M HCl or 1 M NaOH added) is reported as “strong pH buffer effect comparable that of tris”, the pKa ([1]; aqueous solution, estimated from titration) is reported as 6.99 and the “rate of degradation by β-amylase (starch aging inhibiting effect)” value [2] is reported as “significantly high rate of degradation by β-amylase at and after 48 hours compared to the other gels”. The “β-amylase degradation rate (starch aging inhibiting effect)” value ([3]; final concentration 5% to 15%, 96 hours) was “maintained β-amylase degradation rate at 96 hours significantly high compared to the other gels”, the “rate of degradation by β-amylase (starch aging inhibiting effect)” value ([3]; test sample final concentration 10% (w/w), 6° C., 24 to 96 hours) was “significantly high rate of degradation by β-amylase at and after 24 hours compared to the other gels” and the “rate of degradation by β-amylase (starch aging inhibiting effect)” value [4] was “significantly high rate of degradation by β-amylase at and after 48 hours compared to the other gels”.
